Test results reported in patent publication US9132126B2, “Phenyl-isoxazole derivatives and preparation process thereof” (priority 2011, dated 2015).
≈ marks a conversion by molar mass, not a printed value. Like-named read-outs stand apart in the source and are kept apart here.

System: Oseltamivir resistant strain virus
Assay: microbe, parasite or virus in culture
Format: cell-based, influenza virus
[1] = unidentified influenza virus, read-out: EC50

With CCOC(=O)C1=C[C@@H](OC(CC)CC)[C@H](NC(C)=O)[C@@H](N)C1 [Oseltamivir, reference compound] the SI value was 12.5 to 25 and the EC50 [1] was 50 µg/mL (≈ 160 µM).
In the case of Cc1onc(-c2ccccc2OC(F)(F)F)c1C(=O)N1CCN(c2ccc(Cl)c(Cl)c2)CC1 [Example 35, (4-(3,4-dichlorophenyl)piperazine-1-yl)(5-methyl-3-(2-(trifluoromethoxy)phenyl)isoxazol-4-yl)methanone], the SI value is reported as 1602.564 to 3205.128, the “antiviral activity effect on a virus strain resistant to Oseltamivir (tamiflu)” value (“antiviral activity effect” below) (in words) is reported as “high antiviral activity effect” and the EC50 [1] is reported as 0.195 µg/mL (≈ 0.39 µM).
In the case of COc1cccc(N2CCN(C(=O)c3c(-c4ccccc4Cl)noc3C)CC2)c1 [Example 9, (3-(2-chlorophenyl)-5-methylisoxazol-4-yl)(4-(3-methoxyphenyl)piperazine-1-yl)methanone], the SI value is reported as 3221.649 to 13020.833, the “antiviral activity effect” value (in words) is reported as “high antiviral activity effect” and the EC50 [1] is reported as 0.048 to 0.097 µg/mL (≈ 0.117 to 0.236 µM).
For COc1cccc(N2CCN(C(=O)c3c(-c4cccc(F)c4)noc3C)CC2)c1 [Example 12, (3-(3-fluorophenyl)-5-methylisoxazol-4-yl)(4-(3-methoxyphenyl)piperazine-1-yl)methanone], the SI value was 50.016 to 100.032, the “antiviral activity effect” value (in words) was “high antiviral activity effect” and the EC50 [1] was 1.56 µg/mL (≈ 3.95 µM).
For Cc1onc(-c2cccc(F)c2)c1C(=O)N1CCN(c2ccccc2O)CC1 [Example 16, (3-(3-fluorophenyl)-5-methylisoxazol-4-yl)(4-(2-hydroxyphenyl)piperazine-1-yl)methanone], the SI value was 100.032 to 200.321, the “antiviral activity effect” value (in words) was “high antiviral activity effect” and the EC50 [1] was 0.39 to 0.781 µg/mL (≈ 1.02 to 2.05 µM).
For COc1cccc(N2CCN(C(=O)c3c(-c4ccccc4Cl)noc3N)CC2)c1 [Example 60, (5-amino-3-(2-chlorophenyl)isoxazol-4-yl)(4-(3-methoxyphenyl)piperazine-1-yl)methanone], the “antiviral activity effect” value (in words) was “high antiviral activity effect” and the EC50 [1] was 0.053 to 0.094 µg/mL (≈ 0.128 to 0.228 µM).
In the case of Cc1onc(-c2cccc(F)c2)c1C(=O)N1CCN(c2ccc(Cl)c(Cl)c2)CC1 [Example 11, (4-(3,4-dichlorophenyl)piperazine-1-yl)(3-(3-fluorophenyl)-5-methylisoxazol-4-yl)methanone], the SI value is reported as 1471.794 to 3205.128, the “antiviral activity effect” value (in words) is reported as “high antiviral activity effect” and the EC50 [1] is reported as 0.195 µg/mL (≈ 0.449 µM).
COc1cccc(N2CCN(C(=O)c3c(-c4ccccc4C(F)(F)F)noc3C)CC2)c1 [Example 3, (4-(3-methoxyphenyl)piperazine-1-yl)(5-methyl-3-(2-(trifluoromethyl)phenyl)isoxazol-4-yl)methanone] was tested, and the SI value was 3276.59 to 9812.50, the “antiviral activity effect” value (in words) was “high antiviral activity effect” and the EC50 [1] was 0.064 to 0.094 µg/mL (≈ 0.144 to 0.211 µM).
COc1ccccc1N1CCN(C(=O)c2c(-c3ccccc3C(F)(F)F)noc2C)CC1 [Example 4] was tested, and the SI value was 1.563 to 3.125, the “antiviral activity effect” value was “high antiviral activity effect” and the EC50 (Oseltamivir resistant strain) was 50 µg/mL (≈ 112 µM).
In the case of CCOC(=O)C1CCN(C(=O)c2c(-c3ccccc3OC(F)(F)F)noc2N)CC1 [Example 124], the SI value is reported as 12.5, the “antiviral activity effect” value is reported as “high antiviral activity effect” and the EC50 (Oseltamivir resistant strain) is reported as 25 µg/mL (≈ 58.5 µM).
